Columns and labels:
human orexin-1 receptor = human orexin-1 receptor (Homo sapiens (Human), UniProt O43613); test: Intracellular calcium measurements (FLIPR), antagonism of orexin-A response; assay type: cell-based; conditions: CHO cells expressing human orexin-1 receptor, 3 nM orexin-A, geometric mean if determined several times, read-out: IC50 OX1
Procedure: (§1) Antagonistic activities on both orexin receptors have been measured for each example compound using the following procedure:
(§2) In Vitro Assay: Intracellular Calcium Measurements:
(§3) Chinese hamster ovary (CHO) cells expressing the human orexin-1 receptor and the human orexin-2 receptor, respectively, are grown in culture medium (Ham F-12 with L-Glutamine) containing 300 μg/mL G418, 100 U/mL penicillin, 100 μg/mL streptomycin and 10% heat inactivated fetal calf serum (FCS). The cells are seeded at 20,000 cells/well into 384-well black clear bottom sterile plates (Greiner). The seeded plates are incubated overnight at 37° C. in 5% CO2. Human orexin-A as an agonist is prepared as 1 mM stock solution in MeOH:water (1:1), diluted in HBSS containing 0.1% bovine serum albumin (BSA), NaHCO3: 0.375 g/L and 20 mM HEPES for use in the assay at a final concentration of 3 nM.
(§4) Antagonists are prepared as 10 mM stock solution in DMSO, then diluted in 384-well plates using DMSO followed by a transfer of the dilutions into in HBSS containing 0.1% bovine serum albumin (BSA), NaHCO3: 0.375 g/L and 20 mM HEPES. On the day of the assay, 50 μL of staining buffer (HBSS containing 1% FCS, 20 mM HEPES, NaHCO3: 0.375 g/L, 5 mM probenecid (Sigma) and 3 μM of the fluorescent calcium indicator fluo-4 AM (1 mM stock solution in DMSO, containing 10% pluronic) is added to each well. The 384-well cell-plates are incubated for 50 min at 37° C. in 5% CO2 followed by equilibration at rt for 30 min before measurement.
(§5) Within the Fluorescent Imaging Plate Reader (FLIPR Tetra, Molecular Devices), antagonists are added to the plate in a volume of 10 μL/well, incubated for 120 min and finally 10 μL/well of agonist is added. Fluorescence is measured for each well at 1 second intervals, and the height of each fluorescence peak is compared to the height of the fluorescence peak induced by 3 nM orexin-A with vehicle in place of antagonist. The IC50 value (the concentration of compound needed to inhibit 50% of the agonistic response) is determined and may be normalized using the obtained IC50 value of an on-plate reference compound. Optimized conditions were achieved by adjustment of pipetting speed and cell splitting regime. The calculated IC50 values may fluctuate depending on the daily cellular assay performance. Fluctuations of this kind are known to those skilled in the art. In the case where IC50 values have been determined several times for the same compound, the geometric mean has been given.

human orexin-2 receptor = human orexin-2 receptor (Homo sapiens (Human), UniProt O43614); test: as above; assay type: cell-based; conditions: CHO cells expressing human orexin-2 receptor, 3 nM orexin-A, geometric mean if determined several times, read-out: IC50 OX2
human orexin-2 receptor, sequence (O43614 whole entry): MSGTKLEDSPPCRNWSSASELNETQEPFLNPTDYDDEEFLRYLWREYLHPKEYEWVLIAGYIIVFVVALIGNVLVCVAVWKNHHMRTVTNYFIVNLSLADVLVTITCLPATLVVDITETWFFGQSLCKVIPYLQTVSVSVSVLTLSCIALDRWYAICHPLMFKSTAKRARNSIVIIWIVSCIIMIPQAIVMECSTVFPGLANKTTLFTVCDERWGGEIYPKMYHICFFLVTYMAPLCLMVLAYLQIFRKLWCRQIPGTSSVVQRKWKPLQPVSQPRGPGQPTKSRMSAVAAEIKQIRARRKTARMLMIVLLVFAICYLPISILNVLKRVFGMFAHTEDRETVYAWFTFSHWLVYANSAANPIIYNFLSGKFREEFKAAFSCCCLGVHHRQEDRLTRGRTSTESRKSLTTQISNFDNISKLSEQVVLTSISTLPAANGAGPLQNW
Procedure: as §1, §2, §3, §4, §5

human orexin-1 receptor, sequence (O43613 whole entry): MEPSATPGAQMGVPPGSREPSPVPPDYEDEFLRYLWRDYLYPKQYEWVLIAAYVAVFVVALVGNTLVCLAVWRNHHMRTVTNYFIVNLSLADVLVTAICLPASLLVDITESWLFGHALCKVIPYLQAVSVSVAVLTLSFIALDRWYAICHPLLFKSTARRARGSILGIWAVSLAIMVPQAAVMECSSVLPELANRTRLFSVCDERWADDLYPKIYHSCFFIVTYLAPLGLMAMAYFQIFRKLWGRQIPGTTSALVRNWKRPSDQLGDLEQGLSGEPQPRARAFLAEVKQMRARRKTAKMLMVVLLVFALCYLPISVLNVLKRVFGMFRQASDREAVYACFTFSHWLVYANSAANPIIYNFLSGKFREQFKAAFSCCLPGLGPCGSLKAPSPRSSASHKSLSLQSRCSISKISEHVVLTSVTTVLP

Structure (SMILES) | IC50 (human orexin-1 receptor) [nM] | IC50 (human orexin-2 receptor) [nM]
Cc1ccc(-n2nccn2)c(C(=O)N2CC[C@H]2c2nc(-c3ccccc3C)no2)c1 [Example 1, (5-Methyl-2-[1,2,3]triazol-2-yl-phenyl)-[(S)-2-(3-o-tolyl-[1,2,4]oxadiazol-5-yl)-azetidin-1-yl]-methanone] | 1220 | 19
Cc1ccc(-n2nccn2)c(C(=O)N2CC[C@H]2c2nc(-c3cccc(F)c3C)no2)c1 [Example 2, {(S)-2-[3-(3-Fluoro-2-methyl-phenyl)-[1,2,4]oxadiazol-5-yl]-azetidin-1-yl}-(5-methyl-2-[1,2,3]triazol-2-yl-phenyl)-methanone] | 713 | 9
Cc1ccc(-c2noc([C@@H]3CCN3C(=O)c3cc(C)ccc3-n3nccn3)n2)cc1 [Example 3, (5-Methyl-2-[1,2,3]triazol-2-yl-phenyl)-[(S)-2-(3-p-tolyl-[1,2,4]oxadiazol-5-yl)-azetidin-1-yl]-methanone] | 2110 | 180
COc1ccccc1-c1noc([C@@H]2CCN2C(=O)c2cc(C)ccc2-n2nccn2)n1 [Example 4, {(S)-2-[3-(2-Methoxy-phenyl)-[1,2,4]oxadiazol-5-yl]-azetidin-1-yl}-(5-methyl-2-[1,2,3]triazol-2-yl-phenyl)-methanone] | 1300 | 38
COc1cccc(-c2noc([C@@H]3CCN3C(=O)c3cc(C)ccc3-n3nccn3)n2)c1 [Example 5, {(S)-2-[3-(3-Methoxy-phenyl)-[1,2,4]oxadiazol-5-yl]-azetidin-1-yl}-(5-methyl-2-[1,2,3]triazol-2-yl-phenyl)-methanone] | 1190 | 25
CCCOc1ccccc1-c1noc([C@@H]2CCN2C(=O)c2cc(C)ccc2-n2nccn2)n1 [Example 6, (5-Methyl-2-[1,2,3]triazol-2-yl-phenyl)-{(S)-2-[3-(2-propoxy-phenyl)-[1,2,4]oxadiazol-5-yl]-azetidin-1-yl}-methanone] | 472 | 115
Cc1ccc(-n2nccn2)c(C(=O)N2CC[C@H]2c2nc(-c3cccc(Cl)c3C)no2)c1 [Example 7, {(S)-2-[3-(3-Chloro-2-methyl-phenyl)-[1,2,4]oxadiazol-5-yl]-azetidin-1-yl}-(5-methyl-2-[1,2,3]triazol-2-yl-phenyl)-methanone] | 120 | 10
Cc1ccc(-n2nccn2)c(C(=O)N2CC[C@H]2c2nc(-c3c(C)cccc3F)no2)c1 [Example 8, {(S)-2-[3-(2-Fluoro-6-methyl-phenyl)-[1,2,4]oxadiazol-5-yl]-azetidin-1-yl}-(5-methyl-2-[1,2,3]triazol-2-yl-phenyl)-methanone] | 3430 | 115
CCOc1c(F)cccc1-c1noc([C@@H]2CCN2C(=O)c2cc(C)ccc2-n2nccn2)n1 [Example 9, {(S)-2-[3-(2-Ethoxy-3-fluoro-phenyl)-[1,2,4]oxadiazol-5-yl]-azetidin-1-yl}-(5-methyl-2-[1,2,3]triazol-2-yl-phenyl)-methanone] | 134 | 10
Cc1ccc(-n2nccn2)c(C(=O)N2CC[C@H]2c2nc(-c3cc(C)ccc3C)no2)c1 [Example 10, {(S)-2-[3-(2,5-Dimethyl-phenyl)-[1,2,4]oxadiazol-5-yl]-azetidin-1-yl}-(5-methyl-2-[1,2,3]triazol-2-yl-phenyl)-methanone] | 335 | 17
Cc1ccc(-n2nccn2)c(C(=O)N2CC[C@H]2c2nc(-c3cc(F)cc(F)c3)no2)c1 [Example 11, {(S)-2-[3-(3,5-Difluoro-phenyl)-[1,2,4]oxadiazol-5-yl]-azetidin-1-yl}-(5-methyl-2-[1,2,3]triazol-2-yl-phenyl)-methanone] | 2320 | 280
Cc1ccc(-n2nccn2)c(C(=O)N2CC[C@H]2c2nc(-c3ccc(F)c(F)c3)no2)c1 [Example 12, {(S)-2-[3-(3,4-Difluoro-phenyl)-[1,2,4]oxadiazol-5-yl]-azetidin-1-yl}-(5-methyl-2-[1,2,3]triazol-2-yl-phenyl)-methanone] | 2490 | 187

From US9403813B2, “Azetidine amide derivatives as orexin receptor antagonists” (ACTELION PHARMACEUTICALS LTD, priority 2013, dated 2016)
